From PMC10046369, “Low-Affinity/High-Selectivity Dopamine Transport Inhibition Sufficient to Rescue Cognitive Functions in the Aging Rat” (Biomolecules, 2023)

Assays:
Assay in all cases: biochemical
Set-up in all cases: KINOMEscan competition binding panel, per cent of control
Conditions in all cases: read-out: %Ctrl @ 2800nM
MARK1 = MARK1 (Homo sapiens, UniProt Q9P0L2)
Outline: (§1)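 Values are expressed as percent of control, calculated as ((test − positive control)/(negative control − positive control)) × 100, so lower numbers mean stronger hits. Binding was measured by KINOMEscan competition assay in a 450-kinase human panel including disease mutants, using the contractor's validated protocol.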

EPHA1 = EPHA1 (Homo sapiens, UniProt P21709)
Outline: as §1

DCAMKL1 = biological target: T1, DCAMKL1 (Homo sapiens, UniProt O15075)
T1 construct: gene DCLK1
Outline: as §1

CAMK1D = CAMK1D (Homo sapiens, UniProt Q8IU85)
Outline: as §1

TAOK2 = TAOK2 (Homo sapiens, UniProt Q9UL54)
Outline: as §1

FLT4 = FLT4 (Homo sapiens, UniProt P35916)
Outline: as §1

RET(V804L) = RET(V804L) (Homo sapiens, UniProt P07949, V804L)
Outline: as §1

PRKCQ = PRKCQ (Homo sapiens, UniProt Q04759)
Outline: as §1

TRKB = biological target: T2, TRKB (Homo sapiens, UniProt Q16620)
T2 construct: gene NTRK2
Outline: as §1

LOK = biological target: T3, LOK (Homo sapiens, UniProt O94804)
T3 construct: gene STK10
Outline: as §1

ERK8 = biological target: T4, ERK8 (Homo sapiens, UniProt Q8TD08)
T4 construct: gene MAPK15
Outline: as §1

CDK5 = CDK5 (Homo sapiens, UniProt Q00535)
Outline: as §1

MET(M1250T) = MET(M1250T) (Homo sapiens, UniProt P08581, M1250T)
Outline: as §1

NEK6 = NEK6 (Homo sapiens, UniProt Q9HC98)
Outline: as §1

p38-delta = biological target: T5, p38-delta (Homo sapiens, UniProt O15264)
T5 construct: gene MAPK13
Outline: as §1

RAF1 = RAF1 (Homo sapiens, UniProt P04049)
Outline: as §1

PAK3 = PAK3 (Homo sapiens, UniProt O75914)
Outline: as §1

CHEK2 = CHEK2 (Homo sapiens, UniProt O96017)
Outline: as §1

BIKE = biological target: T6, BIKE (Homo sapiens, UniProt Q9NSY1)
T6 construct: gene BMP2K
Outline: as §1

RIOK1 = RIOK1 (Homo sapiens, UniProt Q9BRS2)
Outline: as §1

LYN = LYN (Homo sapiens, UniProt P07948)
Outline: as §1

BRSK1 = BRSK1 (Homo sapiens, UniProt Q8TDC3)
Outline: as §1

ANKK1 = ANKK1 (Homo sapiens, UniProt Q8NFD2)
Outline: as §1

SGK = biological target: T7, SGK (Homo sapiens, UniProt O00141)
T7 construct: gene SGK1
Outline: as §1

FLT3(R834Q) = FLT3(R834Q) (Homo sapiens, UniProt P36888, R834Q)
Outline: as §1

FAK = biological target: T8, FAK (Homo sapiens, UniProt Q05397)
T8 construct: gene PTK2
Outline: as §1

Sequence of TAOK2 (Q9UL54 whole entry): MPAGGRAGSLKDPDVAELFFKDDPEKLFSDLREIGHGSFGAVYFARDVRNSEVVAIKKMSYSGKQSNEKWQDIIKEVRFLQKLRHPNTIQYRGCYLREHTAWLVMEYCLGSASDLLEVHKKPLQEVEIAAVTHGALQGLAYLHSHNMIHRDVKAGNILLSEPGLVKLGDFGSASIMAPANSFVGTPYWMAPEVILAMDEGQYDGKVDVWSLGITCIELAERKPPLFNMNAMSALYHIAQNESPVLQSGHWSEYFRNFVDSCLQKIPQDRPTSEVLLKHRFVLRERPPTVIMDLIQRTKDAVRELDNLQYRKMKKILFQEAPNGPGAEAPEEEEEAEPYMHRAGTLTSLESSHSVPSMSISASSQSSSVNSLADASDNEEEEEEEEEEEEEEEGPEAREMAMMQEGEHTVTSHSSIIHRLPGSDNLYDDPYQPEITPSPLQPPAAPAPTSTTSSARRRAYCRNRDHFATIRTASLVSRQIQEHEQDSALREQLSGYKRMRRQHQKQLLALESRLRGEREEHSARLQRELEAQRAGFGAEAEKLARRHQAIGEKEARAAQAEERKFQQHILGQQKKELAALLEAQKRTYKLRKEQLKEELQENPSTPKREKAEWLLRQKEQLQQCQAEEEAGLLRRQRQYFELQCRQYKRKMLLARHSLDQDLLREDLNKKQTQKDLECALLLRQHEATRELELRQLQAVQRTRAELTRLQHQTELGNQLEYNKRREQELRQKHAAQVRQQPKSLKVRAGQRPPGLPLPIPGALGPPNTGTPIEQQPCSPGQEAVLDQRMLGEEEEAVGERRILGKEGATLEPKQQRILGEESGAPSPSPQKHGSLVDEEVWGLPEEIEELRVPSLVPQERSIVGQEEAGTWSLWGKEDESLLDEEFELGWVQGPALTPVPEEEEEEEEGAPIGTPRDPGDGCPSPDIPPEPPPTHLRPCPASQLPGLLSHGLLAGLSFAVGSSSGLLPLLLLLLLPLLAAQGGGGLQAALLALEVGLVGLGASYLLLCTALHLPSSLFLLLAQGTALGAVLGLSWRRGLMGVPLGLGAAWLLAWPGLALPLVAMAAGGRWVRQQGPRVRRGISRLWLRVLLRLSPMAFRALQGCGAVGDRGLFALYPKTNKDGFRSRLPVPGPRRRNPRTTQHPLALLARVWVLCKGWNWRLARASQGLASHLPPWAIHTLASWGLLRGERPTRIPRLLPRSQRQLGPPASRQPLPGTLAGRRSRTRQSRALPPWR
T2 sequence (Q16620 whole entry): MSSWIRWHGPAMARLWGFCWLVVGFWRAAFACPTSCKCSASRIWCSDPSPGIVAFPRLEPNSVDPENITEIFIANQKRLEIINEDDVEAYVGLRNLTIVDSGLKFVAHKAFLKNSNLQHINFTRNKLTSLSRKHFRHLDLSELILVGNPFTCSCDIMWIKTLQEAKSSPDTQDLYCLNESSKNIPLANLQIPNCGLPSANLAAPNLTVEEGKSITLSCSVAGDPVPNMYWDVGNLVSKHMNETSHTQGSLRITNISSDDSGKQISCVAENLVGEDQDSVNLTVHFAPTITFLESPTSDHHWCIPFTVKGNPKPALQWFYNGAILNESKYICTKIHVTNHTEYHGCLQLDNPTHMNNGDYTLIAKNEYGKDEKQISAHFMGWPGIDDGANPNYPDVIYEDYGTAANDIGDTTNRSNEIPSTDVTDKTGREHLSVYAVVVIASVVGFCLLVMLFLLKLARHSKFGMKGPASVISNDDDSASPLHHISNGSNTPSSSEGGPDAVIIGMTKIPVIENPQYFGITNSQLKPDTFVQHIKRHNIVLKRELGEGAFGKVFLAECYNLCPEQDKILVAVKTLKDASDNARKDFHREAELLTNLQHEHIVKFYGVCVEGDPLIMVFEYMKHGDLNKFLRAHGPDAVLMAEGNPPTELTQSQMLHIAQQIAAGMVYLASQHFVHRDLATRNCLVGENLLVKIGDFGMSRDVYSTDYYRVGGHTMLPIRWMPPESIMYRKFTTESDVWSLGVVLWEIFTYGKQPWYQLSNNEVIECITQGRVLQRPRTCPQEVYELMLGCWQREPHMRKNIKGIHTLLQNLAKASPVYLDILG
Sequence of ANKK1 (Q8NFD2 whole entry): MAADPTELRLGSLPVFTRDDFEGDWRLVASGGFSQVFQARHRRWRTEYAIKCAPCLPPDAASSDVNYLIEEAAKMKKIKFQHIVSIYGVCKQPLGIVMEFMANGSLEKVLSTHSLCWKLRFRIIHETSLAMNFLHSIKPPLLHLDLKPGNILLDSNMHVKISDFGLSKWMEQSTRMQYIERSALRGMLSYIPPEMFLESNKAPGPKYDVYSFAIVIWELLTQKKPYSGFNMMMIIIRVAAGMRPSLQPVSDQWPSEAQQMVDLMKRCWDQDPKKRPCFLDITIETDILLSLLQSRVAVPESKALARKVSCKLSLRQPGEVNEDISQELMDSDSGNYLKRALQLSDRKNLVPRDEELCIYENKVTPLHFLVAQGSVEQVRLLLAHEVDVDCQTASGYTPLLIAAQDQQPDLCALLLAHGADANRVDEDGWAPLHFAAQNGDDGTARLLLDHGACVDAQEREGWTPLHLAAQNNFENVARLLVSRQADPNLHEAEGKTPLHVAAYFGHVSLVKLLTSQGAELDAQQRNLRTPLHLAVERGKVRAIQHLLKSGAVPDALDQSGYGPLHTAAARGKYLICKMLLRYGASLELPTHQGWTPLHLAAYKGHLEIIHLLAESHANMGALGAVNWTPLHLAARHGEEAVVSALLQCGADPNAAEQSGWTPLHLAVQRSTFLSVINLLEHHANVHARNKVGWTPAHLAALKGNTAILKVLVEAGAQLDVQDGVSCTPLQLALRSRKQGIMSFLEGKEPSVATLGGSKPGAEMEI
Sequence of RET(V804L) (P07949 whole entry V804L): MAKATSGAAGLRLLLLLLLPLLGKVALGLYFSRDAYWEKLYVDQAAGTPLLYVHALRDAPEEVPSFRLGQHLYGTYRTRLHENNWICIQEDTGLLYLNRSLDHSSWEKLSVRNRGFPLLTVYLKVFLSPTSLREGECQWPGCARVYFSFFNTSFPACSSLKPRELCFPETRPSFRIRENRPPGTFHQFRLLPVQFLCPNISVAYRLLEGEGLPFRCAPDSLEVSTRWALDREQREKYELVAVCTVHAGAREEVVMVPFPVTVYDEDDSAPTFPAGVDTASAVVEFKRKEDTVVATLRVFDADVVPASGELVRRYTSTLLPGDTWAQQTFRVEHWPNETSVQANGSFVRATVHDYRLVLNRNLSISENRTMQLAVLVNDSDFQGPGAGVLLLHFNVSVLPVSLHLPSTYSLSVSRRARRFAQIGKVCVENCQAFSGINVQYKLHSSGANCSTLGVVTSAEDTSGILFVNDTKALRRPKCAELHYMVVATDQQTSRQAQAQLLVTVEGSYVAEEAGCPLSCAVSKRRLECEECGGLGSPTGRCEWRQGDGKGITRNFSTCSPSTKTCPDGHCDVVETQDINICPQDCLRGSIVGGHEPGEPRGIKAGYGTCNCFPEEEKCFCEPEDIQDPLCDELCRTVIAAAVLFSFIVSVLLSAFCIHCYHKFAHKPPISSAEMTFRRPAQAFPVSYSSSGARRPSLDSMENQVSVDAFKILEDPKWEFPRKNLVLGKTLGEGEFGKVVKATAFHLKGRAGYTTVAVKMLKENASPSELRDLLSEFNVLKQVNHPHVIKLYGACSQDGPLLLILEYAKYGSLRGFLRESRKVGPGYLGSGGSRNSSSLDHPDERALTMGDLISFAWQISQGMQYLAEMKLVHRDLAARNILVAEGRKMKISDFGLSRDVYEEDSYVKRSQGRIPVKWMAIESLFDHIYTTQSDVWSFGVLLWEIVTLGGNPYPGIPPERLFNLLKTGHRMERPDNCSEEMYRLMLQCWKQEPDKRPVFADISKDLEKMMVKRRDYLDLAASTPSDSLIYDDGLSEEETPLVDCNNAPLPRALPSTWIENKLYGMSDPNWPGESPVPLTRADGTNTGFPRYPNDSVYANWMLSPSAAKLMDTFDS
T6 sequence (Q9NSY1 whole entry): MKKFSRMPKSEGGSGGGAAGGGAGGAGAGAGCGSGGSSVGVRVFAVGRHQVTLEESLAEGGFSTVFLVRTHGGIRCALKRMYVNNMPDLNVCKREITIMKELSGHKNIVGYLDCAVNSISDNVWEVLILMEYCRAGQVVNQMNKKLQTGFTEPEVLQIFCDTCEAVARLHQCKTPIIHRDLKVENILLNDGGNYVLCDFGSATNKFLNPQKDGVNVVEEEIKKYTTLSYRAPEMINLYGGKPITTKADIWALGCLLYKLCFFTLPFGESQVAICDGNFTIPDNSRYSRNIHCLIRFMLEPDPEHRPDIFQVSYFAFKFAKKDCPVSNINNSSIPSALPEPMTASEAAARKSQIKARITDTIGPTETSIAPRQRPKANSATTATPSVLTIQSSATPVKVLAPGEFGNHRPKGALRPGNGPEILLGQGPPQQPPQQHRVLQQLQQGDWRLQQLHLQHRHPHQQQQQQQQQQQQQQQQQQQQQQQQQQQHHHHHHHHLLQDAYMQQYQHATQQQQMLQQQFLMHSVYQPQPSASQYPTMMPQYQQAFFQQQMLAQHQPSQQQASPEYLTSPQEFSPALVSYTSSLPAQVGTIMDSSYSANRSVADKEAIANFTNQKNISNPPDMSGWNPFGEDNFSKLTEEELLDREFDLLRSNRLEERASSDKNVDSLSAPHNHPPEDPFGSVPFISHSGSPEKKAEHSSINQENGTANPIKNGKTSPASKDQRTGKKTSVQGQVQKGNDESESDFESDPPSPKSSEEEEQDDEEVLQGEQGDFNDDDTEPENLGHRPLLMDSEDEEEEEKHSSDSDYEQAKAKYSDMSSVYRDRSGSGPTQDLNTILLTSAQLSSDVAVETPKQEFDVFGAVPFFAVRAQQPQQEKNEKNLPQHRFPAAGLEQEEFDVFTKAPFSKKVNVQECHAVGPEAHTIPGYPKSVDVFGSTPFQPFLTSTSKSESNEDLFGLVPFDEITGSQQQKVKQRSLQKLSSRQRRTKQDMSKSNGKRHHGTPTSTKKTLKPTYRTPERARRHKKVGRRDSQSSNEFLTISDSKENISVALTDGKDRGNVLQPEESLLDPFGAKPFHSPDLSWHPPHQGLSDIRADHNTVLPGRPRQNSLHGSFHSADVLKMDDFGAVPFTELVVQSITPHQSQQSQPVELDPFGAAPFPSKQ

Compound `[O-][S@@+](Cc1cncs1)C(c1ccccc1)c1ccccc1` [S-CE-123, (S)-5-((Benzhydrylsulfinyl)Methyl)Thiazole] has a remaining binding at 2.8 µM (MARK1) of 93%, a remaining binding at 2.8 µM (EPHA1) of 96% and a remaining binding at 2.8 µM (DCAMKL1) of 100%. The remaining binding at 2.8 µM (CAMK1D) was 96%, the remaining binding at 2.8 µM (TAOK2) was 100% and the remaining binding at 2.8 µM (FLT4) was 100%. For the same compound, the remaining binding at 2.8 µM (RET(V804L)) was 91%, the remaining binding at 2.8 µM (PRKCQ) was 100% and the remaining binding at 2.8 µM (TRKB) was 100%. The remaining binding at 2.8 µM (LOK) was 95%, the remaining binding at 2.8 µM (ERK8) was 100% and the remaining binding at 2.8 µM (CDK5) was 97%. For the same compound, the remaining binding at 2.8 µM (MET(M1250T)) was 99%, the remaining binding at 2.8 µM (NEK6) was 100% and the remaining binding at 2.8 µM (p38-delta) was 95%. The remaining binding at 2.8 µM (RAF1) was 76%, the remaining binding at 2.8 µM (PAK3) was 70% and the remaining binding at 2.8 µM (CHEK2) was 78%. It also gave a remaining binding at 2.8 µM (BIKE) of 97%, a remaining binding at 2.8 µM (RIOK1) of 77% and a remaining binding at 2.8 µM (LYN) of 83%. It also gave a remaining binding at 2.8 µM (BRSK1) of 100%, a remaining binding at 2.8 µM (ANKK1) of 100% and a remaining binding at 2.8 µM (SGK) of 94%. The remaining binding at 2.8 µM (FLT3(R834Q)) was 90% and the remaining binding at 2.8 µM (FAK) was 100%.
